Source: patent publication US10813880B2, “Isotretinoin oral-mucosal formulations and methods for using same” (Skyline Biosciences LLC, priority 2017, dated 2020)

Tests used:
[1] = tested on: Human gingival keratinocytes; experiment: Cytotoxicity in 2D cultured oral epithelial cells (Cell Titer96 Aqueous One); assay type: cell-based; settings: seven concentrations 0.3 to 0.00003%, 24 h
Procedure: Human gingival keratinocytes derived from a single donor were cultured at 37° C. with 5% CO2, and 95% humidity in a 96-well plate for cytotoxicity evaluation. Cells were incubated in the presence of seven concentrations of isotretinoin ranging from 0.3 to 0.00003% for 24 h in triplicate. Untreated cells were used as baseline control. Cytotoxicity was evaluated using the Cell Titer96 Aqueous One (Promega, WI, USA) basic test according to manufacturer's instructions using an absorbance of 490 nm for the final colorimetric readings.

[2] = tested on: Human oral mucosa 3D models (composed of human gingival keratinocytes); experiment: Irritation testing in 3D cultured oral epithelial cells (MTT); assay type: cell-based; settings: 4 hr
Procedure: Human oral mucosa 3D models (composed of human gingival keratinocytes) were exposed topically to CCP-042 oral adhesive film (0.1%, 0.2%, and 0.3%) for 4 hr before viability assessment. Cell viability was measured by MTT assay on tissues, in triplicate. 1% Triton X-100 was used as positive control. The reduction of the viability of tissues exposed to formulations as compared to that of PBS-treated negative controls were used to predict the skin irritation potential using European Union (EU) and Globally Harmonized System (GHS) classifications, which define an irritant as a substance that reduces the viability of the exposed tissue to less than 50% of the viability of untreated controls.

SMILES: CC1=C(/C=C/C(C)=C/C=C/C(C)=C\C(=O)O)C(C)(C)CCC1 [isotretinoin, (2Z,4E,6E,8E)-3,7-dimethyl-9-(2,6,6-trimethylcyclohex-1-en-1-yl)nona-2,4,6,8-tetraenoic acid]
- cytotoxicity (inhibition of viability of more than 20% of control) [1]: toxic
- toxicity to 3D tissue ([2]; concentration 0.1%): not toxic
- toxicity to 3D tissue ([2]; concentration 0.2%): not toxic
